Entries after “also recorded” stand apart in the source; their conditions may differ.
Key:
[1] = biological target: Opiate δ1 (OP1, DOP) (Homo sapiens, UniProt P41143); experiment: Eurofins radioligand binding
[2] = tested on: Purinergic P2X; experiment: Eurofins radioligand binding; settings: Rat
[3] = biological target: Transporter, Norepinephrine (NET) (Homo sapiens, UniProt P23975); experiment: Eurofins radioligand binding
[4] = biological target: Endothelin ETB (Homo sapiens, UniProt P24530); experiment: Eurofins radioligand binding
[5] = biological target: Neuropeptide Y Y1 (Homo sapiens, UniProt P25929); experiment: Eurofins radioligand binding
[6] = biological target: Histamine H1 (Homo sapiens, UniProt P35367); experiment: Eurofins radioligand binding
[7] = tested on: Imidazoline I2, Central; experiment: Eurofins radioligand binding; settings: Rat
[8] = tested on: mice; experiment: modified Irwin neurological test battery; type: in vivo, mouse; settings: result in words
Procedure: To assess peripheral cholinergic toxicity, a modified Irwin neurological battery was performed to score autonomic or somatosensory side effects (Figure ).

[9] = tested on: C57Bl/6 mice; experiment: phenotypic seizure liability assay (Racine scale); type: in vivo, mouse
Procedure: min, with an isocratic hold for 0.5 min, before transitioning to 10% B over 0.05 min. The column was re-equilibrated (1 min) before the next sample injection. The total run time was 2.55 min, and the HPLC flow rate was 0.5 ml/min. The source temperature was set at 500 °C, and mass spectral analyses were performed using a Turbo-Ion spray source in positive ionization mode (5.0-kV spray voltage) and using multiple-reaction monitoring of transitions specific for the analytes. All data were analyzed using AB Sciex Analyst 1.5.1 software.
Brain plasma concentration ratio (Kp) was calculated by dividing brain concentration by plasma concentration for each animal. Unbound brain to unbound plasma concentration ratio (Kp,uu) is calculated using the following formula: Kp,uu = (Brain ng/g x brain fu)/(plasma ng/ml x plasma fu).
Pharmacokinetic profiles in rats following oral single escalating doses Single escalating oral dosing in Sprague-Dawley rats was performed at Frontage Laboratories according to their non-GLP Standard Operating Procedure and IACUC protocols. In short, compounds were formulated in 10% Tween 80 in water and dosed at 10 mg/kg. At different times, arterial blood was collected from a femoral artery catheter, and compound concentration was determined in plasma by LC-MS/MS following their non-GLP protocol. PK parameters were determined using Phoenix WinNonlin software (version 6.3). […]
Blood-brain barrier penetration was determined using MDR1-MDCK cell monolayers by Absorption Systems, following their protocol. […] Compounds concentration on either side of the monolayer was determined by LC-MS/MS and apparent permeability and efflux ratio were determined as described in Wang, Q. et al.1 […]
To evaluate induction of behavioral manifestation of seizure activity, C57Bl/6 mice received administration of vehicle or 100 mg/kg M1 PAM 5. […] Animals were monitored continuously and scored for behavioral manifestations of seizure activity at 5, 15, 30 min, and 1 h. Behavioral manifestations of seizures were scored using a modified Racine scoring system. […]

[10] = tested on: Sprague-Dawley rats; experiment: contextual fear conditioning (CFC); type: in vivo, rat
Procedure: Contextual Fear Conditioning
Contextual Fear Conditioning. Studies were conducted using conditioning chambers in sound attenuating cubicles equipped with a stainless steel grid floor for shock delivery and a video camera for recording freezing behavior (Med Associates, Fairfax, Vermont). Rats were acclimated to the apparatus for 3 days (10 minutes each day) prior to conditioning. On the training (conditioning) day, rats were pretreated by oral gavage with Vehicle (10% Tween 80) or Compound X […]
conditioning chamber that contained 1 mL 10% vanilla extract as odor cue.2 After a 180-sec

[11] = biological target: Adrenergic β1 (Homo sapiens, UniProt P08588); experiment: Eurofins radioligand binding
Adrenergic β1, sequence (P08588 whole entry): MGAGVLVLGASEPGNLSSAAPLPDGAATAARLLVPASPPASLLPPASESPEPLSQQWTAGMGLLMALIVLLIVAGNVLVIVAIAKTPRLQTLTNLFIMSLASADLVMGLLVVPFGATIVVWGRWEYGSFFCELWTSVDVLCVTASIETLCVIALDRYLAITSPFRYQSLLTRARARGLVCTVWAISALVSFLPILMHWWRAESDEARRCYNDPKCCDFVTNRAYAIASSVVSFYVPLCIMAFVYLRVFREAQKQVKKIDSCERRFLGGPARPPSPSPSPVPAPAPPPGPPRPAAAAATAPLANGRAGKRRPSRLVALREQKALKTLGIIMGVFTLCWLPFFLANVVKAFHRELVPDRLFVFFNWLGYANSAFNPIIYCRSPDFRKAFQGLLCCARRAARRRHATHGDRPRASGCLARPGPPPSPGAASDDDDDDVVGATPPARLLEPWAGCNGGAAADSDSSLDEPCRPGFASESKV

Neuropeptide Y Y1, sequence (P25929 whole entry): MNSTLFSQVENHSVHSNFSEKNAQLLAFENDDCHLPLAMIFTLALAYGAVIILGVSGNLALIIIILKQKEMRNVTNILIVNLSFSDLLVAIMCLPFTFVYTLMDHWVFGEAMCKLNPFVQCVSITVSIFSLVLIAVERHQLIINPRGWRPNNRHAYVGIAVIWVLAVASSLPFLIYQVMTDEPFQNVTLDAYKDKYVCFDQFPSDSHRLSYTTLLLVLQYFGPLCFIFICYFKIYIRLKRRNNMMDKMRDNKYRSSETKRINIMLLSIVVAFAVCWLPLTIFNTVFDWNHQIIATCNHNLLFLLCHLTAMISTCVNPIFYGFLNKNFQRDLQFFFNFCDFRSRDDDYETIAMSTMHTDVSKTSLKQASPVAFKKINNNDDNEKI
Opiate δ1 (OP1, DOP), sequence (P41143 whole entry): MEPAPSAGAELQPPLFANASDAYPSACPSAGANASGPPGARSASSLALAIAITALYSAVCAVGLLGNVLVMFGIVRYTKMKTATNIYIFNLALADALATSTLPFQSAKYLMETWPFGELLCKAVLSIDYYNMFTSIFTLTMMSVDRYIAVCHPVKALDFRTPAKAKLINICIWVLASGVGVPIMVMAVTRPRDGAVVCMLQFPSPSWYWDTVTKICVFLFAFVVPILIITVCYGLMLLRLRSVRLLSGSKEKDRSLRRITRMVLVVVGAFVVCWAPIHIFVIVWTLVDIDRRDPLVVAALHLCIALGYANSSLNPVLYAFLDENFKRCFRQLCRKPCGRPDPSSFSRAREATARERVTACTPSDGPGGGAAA
Transporter, Norepinephrine (NET), sequence (P23975 whole entry): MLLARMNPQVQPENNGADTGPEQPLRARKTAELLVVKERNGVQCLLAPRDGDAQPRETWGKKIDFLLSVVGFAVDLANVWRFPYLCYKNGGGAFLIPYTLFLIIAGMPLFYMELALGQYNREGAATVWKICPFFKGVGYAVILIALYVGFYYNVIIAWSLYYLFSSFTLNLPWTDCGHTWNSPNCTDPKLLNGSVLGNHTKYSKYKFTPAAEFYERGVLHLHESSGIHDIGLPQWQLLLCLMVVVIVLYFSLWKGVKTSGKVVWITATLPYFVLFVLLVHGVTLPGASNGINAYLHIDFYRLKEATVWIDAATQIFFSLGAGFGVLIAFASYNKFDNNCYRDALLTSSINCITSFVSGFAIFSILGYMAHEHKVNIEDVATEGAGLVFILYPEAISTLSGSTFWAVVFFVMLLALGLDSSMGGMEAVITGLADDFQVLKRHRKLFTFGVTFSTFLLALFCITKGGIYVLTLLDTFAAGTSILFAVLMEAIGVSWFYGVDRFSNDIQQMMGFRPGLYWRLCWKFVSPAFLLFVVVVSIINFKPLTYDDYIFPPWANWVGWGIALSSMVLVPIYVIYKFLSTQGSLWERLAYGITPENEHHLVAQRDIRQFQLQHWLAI
Endothelin ETB, sequence (P24530 27-442): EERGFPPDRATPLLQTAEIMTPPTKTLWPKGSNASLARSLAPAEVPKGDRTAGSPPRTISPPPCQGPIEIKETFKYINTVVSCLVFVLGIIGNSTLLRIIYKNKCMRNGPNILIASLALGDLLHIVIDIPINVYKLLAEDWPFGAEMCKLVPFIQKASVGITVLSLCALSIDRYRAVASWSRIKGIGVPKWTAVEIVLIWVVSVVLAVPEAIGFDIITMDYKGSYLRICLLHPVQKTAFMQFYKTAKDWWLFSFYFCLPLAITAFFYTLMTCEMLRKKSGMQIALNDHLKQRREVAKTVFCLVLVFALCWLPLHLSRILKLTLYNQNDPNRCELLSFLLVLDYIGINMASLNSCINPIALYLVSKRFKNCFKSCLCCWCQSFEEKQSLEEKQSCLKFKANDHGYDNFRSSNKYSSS
Histamine H1, sequence (P35367 whole entry): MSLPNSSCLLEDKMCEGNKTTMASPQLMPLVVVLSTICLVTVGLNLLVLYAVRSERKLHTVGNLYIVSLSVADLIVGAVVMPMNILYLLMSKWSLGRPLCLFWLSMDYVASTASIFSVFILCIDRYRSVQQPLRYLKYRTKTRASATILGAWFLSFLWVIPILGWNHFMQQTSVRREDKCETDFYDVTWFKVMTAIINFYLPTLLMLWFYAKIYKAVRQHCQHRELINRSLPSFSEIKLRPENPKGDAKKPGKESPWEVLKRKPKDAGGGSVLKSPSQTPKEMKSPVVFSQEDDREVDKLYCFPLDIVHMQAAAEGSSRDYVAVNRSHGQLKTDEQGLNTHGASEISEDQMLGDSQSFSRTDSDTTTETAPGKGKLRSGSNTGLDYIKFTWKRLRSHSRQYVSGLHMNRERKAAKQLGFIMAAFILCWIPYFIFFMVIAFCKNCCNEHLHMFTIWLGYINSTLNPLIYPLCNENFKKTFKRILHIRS

Structure (SMILES): Cn1cc2c(-c3cc(F)c(CN4Cc5ncccc5C4=O)c(F)c3)ccc(C(C)(C)O)c2n1 [compound 7]
- inhibition at 10 µM [1]: -2%
- % Inhibition at 10 µM [2]: 4%
- inhibition at 10 µM [3]: 1%
- inhibition at 10 µM [4]: 6%
- inhibition at 10 µM [5]: -10%
- inhibition at 10 µM [6]: 4%
- % Inhibition at 10 µM [7]: 64%
- adverse effects / SLUDGE in modified Irwin battery ([8]; 56.6 mg/kg IP, 6 h time course): minimal adverse effects or SLUDGE were noted
- adverse effects / SLUDGE in modified Irwin battery ([8]; 56.6 mg/kg IP, 6 h time course, listed as VU6052254): minimal adverse cholinergic events (SLUDGE) were noted
- adverse effects / SLUDGE in modified Irwin battery ([8]; 100 mg/kg IP): more pronounced adverse effects seen
- adverse effects / SLUDGE in modified Irwin battery ([8]; 100 mg/kg IP, listed as VU6052254): adverse cholinergic events (SLUDGE) were noted
- AEs in seizure liability assay ([9]; 56.6 mg/kg IP, mice, result in words): negligible AEs
- Racine scale scores ([9]; 100 mg/kg IP, mice): less than 2
- AEs in Racine score test ([9]; 56.6 and 100 mg/kg, i.p., 360 min, male C57Bl/6 mice, result in words): minimal AEs at 60 min postadministration with a lack of AEs observed at 6 h
- total brain concentration at CFC MED ([10]; 0.3 mg/kg PO, rat): 58 nM
- effect on acquisition of CFC ([10]; 0.03-3 mg/kg PO, result in words): robust dose-dependent enhancement in the acquisition of contextual fear conditioning; also recorded: dose-dependently enhanced the acquisition of CFC
- minimum effective dose (MED) in rat CFC ([10]; PO, 10% Tween 80 in water, male Sprague-Dawley rats): 0.3 mg/kg
- inhibition at 10 µM [11]: 5%
